Measurements taken from US20230125667A1, “NOVEL TDZD ANALOGS AS AGENTS THAT DELAY, PREVENT, OR REVERSE AGE-ASSOCIATED DISEASES AND AS ANTI-CANCER AND ANTILEUKEMIC AGENTS” (United States Government as represented by the Department …, priority 2020, published 2023).
Like-named read-outs stand apart in the source and are kept apart here.

What was measured:
LOX IMVI = test: NCI-60 growth inhibition: LOX IMVI (Melanoma); assay type: cell-based, human
DU-145 = test: NCI-60 growth inhibition: DU-145 (Prostate Cancer); assay type: cell-based, human
T-47D = test: NCI-60 growth inhibition: T-47D (Breast Cancer); assay type: cell-based, human
IGROV1 = test: NCI-60 growth inhibition: IGROV1 (Ovarian Cancer); assay type: cell-based, human
UO-31 = test: NCI-60 growth inhibition: UO-31 (Renal Cancer); assay type: cell-based, human
TK-10 = test: NCI-60 growth inhibition: TK-10 (Renal Cancer); assay type: cell-based, human
COLO 205 = test: NCI-60 growth inhibition: COLO 205 (Colon Cancer); assay type: cell-based, human
EKVX = test: NCI-60 growth inhibition: EKVX (Non-Small-Cell Lung Cancer); assay type: cell-based, human
K-562 = test: NCI-60 growth inhibition: K-562 (Leukemia); assay type: cell-based, human
MDA-MB-468 = test: NCI-60 growth inhibition: MDA-MB-468 (Breast Cancer); assay type: cell-based, human
HT29 = test: NCI-60 growth inhibition: HT29 (Colon Cancer); assay type: cell-based, human
HCT-116 = test: NCI-60 growth inhibition: HCT-116 (Colon Cancer)
SNB-19 = test: NCI-60 growth inhibition: SNB-19 (CNS Cancer); assay type: cell-based, human
NCI-H460 = test: NCI-60 growth inhibition: NCI-H460 (Non-Small-Cell Lung Cancer); assay type: cell-based, human
SW-620 = test: NCI-60 growth inhibition: SW-620 (Colon Cancer); assay type: cell-based, human
OVCAR-5 = test: NCI-60 growth inhibition: OVCAR-5 (Ovarian Cancer); assay type: cell-based, human
MDA-MB-231/ATCC = test: NCI-60 growth inhibition: MDA-MB-231/ATCC (Breast Cancer); assay type: cell-based, human
HS 578T = test: NCI-60 growth inhibition: HS 578T (Breast Cancer); assay type: cell-based, human
NCI-H522 = test: NCI-60 growth inhibition: NCI-H522 (Non-Small-Cell Lung Cancer)
HCT-15 = test: NCI-60 growth inhibition: HCT-15 (Colon Cancer); assay type: cell-based, human
MALME-3M = test: NCI-60 growth inhibition: MALME-3M (Melanoma); assay type: cell-based, human
OVCAR-3 = test: NCI-60 growth inhibition: OVCAR-3 (Ovarian Cancer); assay type: cell-based, human
BT-549 = test: NCI-60 growth inhibition: BT-549 (Breast Cancer); assay type: cell-based, human
HOP-92 = test: NCI-60 growth inhibition: HOP-92 (Non-Small-Cell Lung Cancer); assay type: cell-based, human
SK-MEL-28 = test: NCI-60 growth inhibition: SK-MEL-28 (Melanoma); assay type: cell-based, human
SF-539 = test: NCI-60 growth inhibition: SF-539 (CNS Cancer); assay type: cell-based, human
SNB-75 = test: NCI-60 growth inhibition: SNB-75 (CNS Cancer); assay type: cell-based, human
M14 = test: NCI-60 growth inhibition: M14 (Melanoma); assay type: cell-based, human
SN12C = test: NCI-60 growth inhibition: SN12C (Renal Cancer); assay type: cell-based, human
RPMI-8226 = test: NCI-60 growth inhibition: RPMI-8226 (Leukemia); assay type: cell-based, human
RXF 393 = test: NCI-60 growth inhibition: RXF 393 (Renal Cancer); assay type: cell-based, human
SK-MEL-5 = test: NCI-60 growth inhibition: SK-MEL-5 (Melanoma); assay type: cell-based, human
CAKI-1 = test: NCI-60 growth inhibition: CAKI-1 (Renal Cancer); assay type: cell-based, human
MOLT-4 = test: NCI-60 growth inhibition: MOLT-4 (Leukemia); assay type: cell-based, human
OVCAR-8 = test: NCI-60 growth inhibition: OVCAR-8 (Ovarian Cancer); assay type: cell-based, human
[1] = test system: MV4-11 cell line (myelomonocytic leukemia); conditions: MV4-11 cells; for LD50, 7AAD (μM) 24 h / LD50, Alamar blue (μM) 24 h / LD50, YOPRO (μM) 24 h: MMB-TDZD analogs (Table 2)
A498 = test: NCI-60 growth inhibition: A498 (Renal Cancer); assay type: cell-based, human
PC-3 = test: NCI-60 growth inhibition: PC-3 (Prostate Cancer); assay type: cell-based, human
MDA-MB-435 = test: NCI-60 growth inhibition: MDA-MB-435 (Melanoma); assay type: cell-based, human
MCF7 = test: NCI-60 growth inhibition: MCF7 (Breast Cancer); assay type: cell-based, human
786-0 = test: NCI-60 growth inhibition: 786-0 (Renal Cancer); assay type: cell-based, human
ACHN = test: NCI-60 growth inhibition: ACHN (Renal Cancer); assay type: cell-based, human
NCI-H23 = test: NCI-60 growth inhibition: NCI-H23 (Non-Small-Cell Lung Cancer); assay type: cell-based, human
SK-MEL-2 = test: NCI-60 growth inhibition: SK-MEL-2 (Melanoma); assay type: cell-based, human
OVCAR-4 = test: NCI-60 growth inhibition: OVCAR-4 (Ovarian Cancer); assay type: cell-based, human
CCRF-CEM = test: NCI-60 growth inhibition: CCRF-CEM (Leukemia); assay type: cell-based, human
UACC-62 = test: NCI-60 growth inhibition: UACC-62 (Melanoma); assay type: cell-based, human
SF-268 = test: NCI-60 growth inhibition: SF-268 (CNS Cancer); assay type: cell-based, human
UACC-257 = test: NCI-60 growth inhibition: UACC-257 (Melanoma); assay type: cell-based, human
[2] = test system: human leukemia cell lines; test: NCI-60 growth inhibition, leukemia cell lines; conditions: NCI panel
HL-60(TB) = test: NCI-60 growth inhibition: HL-60(TB) (Leukemia); assay type: cell-based, human; conditions: HL-60(TB) (Leukemia); read-out: GI50
U251 = test: NCI-60 growth inhibition: U251 (CNS Cancer); assay type: cell-based, human

Compound: C=C1C(=O)O[C@H]2[C@H]1CC/C(COC(=O)NCc1ccc(Cn3c(=O)sn(-c4ccccc4)c3=O)cc1)=C\CC[C@@]1(C)O[C@@H]21 [BSK-197]
- GI50 (LOX IMVI; Homo sapiens): 1620 nM
- GI50 (DU-145; Homo sapiens): 1710 nM
- GI50 (T-47D; Homo sapiens, T47D): 1980 nM
- GI50 (IGROV1; Homo sapiens, IGROV-1): 2090 nM
- GI50 (UO-31; Homo sapiens): 1680 nM
- GI50 (TK-10; Homo sapiens): 2210 nM
- GI50 (COLO 205; Homo sapiens): 1770 nM
- GI50 (EKVX; Homo sapiens): 1850 nM
- GI50 (K-562; Homo sapiens, K562): 1800 nM
- GI50 (MDA-MB-468; Homo sapiens, MDA-MB-468): 1170 nM
- GI50 (HT29; Homo sapiens, HT-29): 2150 nM
- GI50 (HCT-116; Homo sapiens, HCT-116): 1520 nM
- GI50 (SNB-19; Homo sapiens): 4.26 µM
- GI50 (NCI-H460; Homo sapiens): 3.67 µM
- GI50 (SW-620; Homo sapiens): 1910 nM
- GI50 (OVCAR-5; Homo sapiens): 2510 nM
- GI50 (MDA-MB-231/ATCC; Homo sapiens): 1710 nM
- GI50 (HS 578T; Homo sapiens): 4.14 µM
- GI50 (NCI-H522; Homo sapiens, NCI-H522): 1740 nM
- GI50 (HCT-15; Homo sapiens): 1940 nM
- GI50 (MALME-3M; Homo sapiens): 2090 nM
- GI50 (OVCAR-3; Homo sapiens): 1680 nM
- GI50 (BT-549; Homo sapiens): 2140 nM
- GI50 (HOP-92; Homo sapiens): 1820 nM
- GI50 (SK-MEL-28; Homo sapiens): 1700 nM
- GI50 (SF-539; Homo sapiens): 1570 nM
- GI50 (SNB-75; Homo sapiens): 2370 nM
- GI50 (M14; Homo sapiens): 1800 nM
- GI50 (SN12C; Homo sapiens): 2130 nM
- GI50 (RPMI-8226; Homo sapiens): 2030 nM
- GI50 (RXF 393; Homo sapiens): 1750 nM
- GI50 (SK-MEL-5; Homo sapiens): 3.24 µM
- GI50 (CAKI-1; Homo sapiens): 2490 nM
- GI50 (MOLT-4; Homo sapiens): 2200 nM
- GI50 (OVCAR-8; Homo sapiens): 2830 nM
- LD50, 7AAD (μM) 24 h [1]: 1.26 µM
- LD50, Alamar blue (μM) 24 h [1]: 2.02 µM
- LD50, YOPRO (μM) 24 h [1]: 1.17 µM
- LD50 ([1]; values in text): 980 nM
- GI50 (A498; Homo sapiens): 3.91 µM
- GI50 (PC-3; Homo sapiens): 2360 nM
- GI50 (MDA-MB-435; Homo sapiens): 2070 nM
- GI50 (MCF7; Homo sapiens): 1590 nM
- GI50 (786-0; Homo sapiens): 1810 nM
- GI50 (ACHN; Homo sapiens): 1640 nM
- GI50 (NCI-H23; Homo sapiens): 3550 nM
- GI50 (SK-MEL-2; Homo sapiens): 2.39 µM
- GI50 (OVCAR-4; Homo sapiens): 2740 nM
- GI50 (CCRF-CEM; Homo sapiens): 830 nM
- GI50 (UACC-62; Homo sapiens): 2040 nM
- GI50 (SF-268; Homo sapiens): 2210 nM
- GI50 (UACC-257; Homo sapiens): 1860 nM

Compound: C=C1C(=O)O[C@H]2[C@H]1CC/C(COC(=O)NCc1ccc(Cn3c(=O)sn(CCCC#N)c3=O)cc1)=C\CC[C@@]1(C)O[C@@H]21 [BSK-226]
- GI50 (LOX IMVI): 1580 nM
- GI50 (DU-145): 1640 nM
- potency against leukemia cell lines (GI50 <1.0) [2]: comparably potent against 4 out of 5 leukemia cell lines
- GI50 (T-47D): 1970 nM
- GI50 (IGROV1): 1780 nM
- GI50 (UO-31): 1400 nM
- GI50 (TK-10): 1750 nM
- GI50 (COLO 205): 2040 nM
- GI50 (EKVX): 2820 nM
- GI50 (K-562): 720 nM
- GI50 (MDA-MB-468; MDA-MB-468 (Breast Cancer), read-out: GI50): 1530 nM
- GI50 (HT29): 2460 nM
- GI50 (HCT-116; HCT-116 (Colon Cancer)): 560 nM
- GI50 (HCT-116; HCT-116 (colon cancer)): 560 nM
- GI50 (SNB-19): 4.84 µM
- GI50 (NCI-H460): 11.3 µM
- GI50 (SW-620): 1230 nM
- GI50 (OVCAR-5): 2640 nM
- GI50 (MDA-MB-231/ATCC): 1720 nM
- GI50 (HS 578T): 5.64 µM
- GI50 (NCI-H522; NCI-H522 (Non-Small-Cell Lung Cancer)): 530 nM
- GI50 (NCI-H522; NCI-H522 (non-small-cell lung cancer)): 530 nM
- GI50 (HCT-15): 1940 nM
- GI50 (MALME-3M): 1340 nM
- GI50 (OVCAR-3): 770 nM
- GI50 (BT-549): 1480 nM
- GI50 (HOP-92): 1100 nM
- GI50 (SK-MEL-28): 1690 nM
- GI50 (SF-539): 1730 nM
- GI50 (SNB-75): 2030 nM
- GI50 (M14): 1930 nM
- GI50 (SN12C): 1360 nM
- GI50 (RPMI-8226): 760 nM
- GI50 (RXF 393): 1350 nM
- GI50 (SK-MEL-5): 3.72 µM
- GI50 (CAKI-1): 2050 nM
- GI50 (MOLT-4): 1500 nM
- GI50 (OVCAR-8): 2320 nM
- LD50, 7AAD (μM) 24 h [1]: 0.75 µM
- LD50, Alamar blue (μM) 24 h [1]: 0.45 µM
- LD50, YOPRO (μM) 24 h [1]: 0.37 µM
- GI50 (A498): 2.83 µM
- GI50 (PC-3): 2130 nM
- GI50 (MDA-MB-435): 1800 nM
- GI50 (HL-60(TB)): 960 nM
- GI50 (MCF7): 1710 nM
- GI50 (786-0): 1480 nM
- GI50 (ACHN): 1660 nM
- GI50 (NCI-H23): 2330 nM
- GI50 (SK-MEL-2): 4.83 µM
- GI50 (OVCAR-4): 1670 nM
- GI50 (CCRF-CEM): 570 nM
- GI50 (UACC-62): 1440 nM
- GI50 (SF-268): 2630 nM
- GI50 (U251): 5.05 µM
- GI50 (UACC-257): 1610 nM
